Tests used:
[1] = Karl Fisher analysis (water content), hygroscopic stability; format: physicochemical; details: exposed to the air for 18 hours; for KF (% H2O) t = 18 h: kept at room temperature
Procedure: Water content analysis were carried out with a Metrohm's KF Coulometer, using Metrohm glass vials (volume 10 mL) with elastometric tight closure, with about 10÷40 mg of sample. The samples were analyzed at 140° C.
The reference was an empty vial of the same kind. Sodium Tartrate diHydrate (theoretical amount is 15.66%) was used to assess the calibration of the apparatus with regard to the humidity.
Then these compounds were kept at room temperature under the same conditions, exposed to the air for 18 hours.

[2] = target: T1, L-CPT I (liver CPT isoform I) (Homo sapiens, UniProt P50416); details: in vitro; cited from earlier work
T1 sequence (P50416 1-773): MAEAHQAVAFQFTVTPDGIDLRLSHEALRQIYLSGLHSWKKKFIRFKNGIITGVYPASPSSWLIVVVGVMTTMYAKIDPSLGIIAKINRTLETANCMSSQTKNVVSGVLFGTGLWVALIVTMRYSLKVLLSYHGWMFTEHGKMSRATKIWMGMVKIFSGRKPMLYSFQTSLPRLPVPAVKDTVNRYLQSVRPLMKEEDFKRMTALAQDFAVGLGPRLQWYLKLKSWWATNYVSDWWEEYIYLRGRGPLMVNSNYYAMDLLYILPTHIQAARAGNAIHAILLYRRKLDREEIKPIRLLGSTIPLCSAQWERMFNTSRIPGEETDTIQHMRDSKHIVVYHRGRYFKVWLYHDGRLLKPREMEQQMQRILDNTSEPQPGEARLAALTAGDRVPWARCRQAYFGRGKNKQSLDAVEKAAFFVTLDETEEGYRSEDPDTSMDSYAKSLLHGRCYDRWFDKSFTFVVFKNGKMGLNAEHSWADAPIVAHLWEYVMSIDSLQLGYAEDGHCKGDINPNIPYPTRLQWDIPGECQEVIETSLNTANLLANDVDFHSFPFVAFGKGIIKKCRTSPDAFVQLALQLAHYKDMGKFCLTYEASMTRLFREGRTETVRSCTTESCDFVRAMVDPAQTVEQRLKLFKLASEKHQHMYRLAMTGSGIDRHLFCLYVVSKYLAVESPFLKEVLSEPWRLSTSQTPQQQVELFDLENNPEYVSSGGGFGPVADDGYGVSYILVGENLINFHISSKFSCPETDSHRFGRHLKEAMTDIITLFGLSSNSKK

ketogenesis = details: in vivo, fasted rats; cited from earlier work
serum glucose levels = details: diabetic mouse model; cited from earlier work

Row | Structure (SMILES) | KF (% H2O) t = 18 h [1] | change of H2O content after exposure to air ([1]; room temperature, repeated KF analysis) | selectivity of inhibition of L-CPT I with respect to M-CPT I [2] | effect on ketogenesis (ketogenesis) | change in heart weight and triglycerides content (serum glucose levels) | effect on serum glucose levels (serum glucose levels)
1 | CCCCCCCCCCCCCCNC(=O)N[C@H](CC(=O)[O-])C[N+](C)(C)C [Example 1, R-4-trimethylammonium-3-(tetradecylcarbamoyl)-amino butyrate] | 5.8% |  |  |  |  | 
2 | CCCCCCCCCCCCCCNC(=O)N[C@H](CC(=O)[O-])C[N+](C)(C)C [Comparative Example 2, R-4-trimethylammonium-3-(tetradecylcarbamoyl)-amino butyrate] | 15.2% | large increase of H2O content |  |  |  | 
3 | CCCCCCCCCCCCCCNC(=O)N[C@H](CC(=O)[O-])C[N+](C)(C)C [teglicar, R-4-trimethylammonium-3-(tetradecylcarbamoyl)-amino butyrate] |  |  | selectively inhibit | depress ketogenesis | without any significant change | good reduction of serum glucose levels

Reference: patent US8598384B2, “Crystalline teglicar” (Sigma-Tau Industrie Farmaceutiche Riunite S.p.A., priority 2007, dated 2013)
